# In patent US8623855B2, “Azetidinone compounds and medical use thereof” (Zhejiang Hisun Pharmaceutical Co., Ltd., priority 2009, dated 2014):
# Read-outs that look alike come from different tables or passages of the source.
# Experiments:
# [1] = test system: hypercholesterolemia golden hamster model; experiment: In vivo pharmacodynamic screening in hypercholesterolemia model of golden hamster (plasma TC and LDL-C); conditions: for LDL-C after administration / TC after administration / LDL after administration: 1 week, plasma; for reduction of plasma TC and LDL-C levels (in words): significant statistical difference; for effect of lowering cholesterol (screening result in words): in vivo pharmacodynamic screening test, Ezetimibe as positive control; for efficacy compared with the positive control (in words): positive control Ezetimibe
# Procedure: 1. Establishment of Hypercholesterolemia Model of Golden Hamster:
# The animals were subjected to acclimation feeding for 1 week with free feeding and drinking under a lighting condition of 10 h/14 h. On Day 8, the animals were raised with high fat feed (consisting of 0.5% cholesterol, 20% palm oil, 79.5% basal feed) for 1 week. Then, each animal was anesthetized by ether. After weighing, 0.5 ml blood was obtained from orbital vein, anticoagulated with heparin and centrifuged at 5000 rpm for 10 min. The plasma was collected and the levels of plasma TC (total cholesterol) and LDL-C (low density lipoprotein cholesterol) were determined by automatic biochemical analyzer. Animals with plasma TC of 9-15 mmol/L were selected as model animals (refer to the following reference for the method of animal modeling: Burrier, R. E., Smith, A. A., Mcgregor, D. G, Hoos, L. M., Zilli, D. L., Davis, H. R. The effect of acyl CoA: cholesterol acyltransferase inhibition on the uptake, esterification and secretion of cholesterol by the hamster small intestine. J. Pharm. Exp. Ther., 1995, 272, 156-163).
# The animals were grouped according to TC and LDL-C levels and weight with 6 animals per group. Ezetimibe was used as positive control. The animals were intragastrically administered at a volume of 5 ml/kg for 1 week. Each animal was anesthetized by ether. After weighing, 0.5 ml blood was taken from orbital vein, anticoagulated with heparin, and centrifuged at 5000 rpm for 10 min. The plasma was collected and plasma TC (total cholesterol) and LDL-C (low density lipoprotein cholesterol) levels were determined by automatic biochemical analyzer to evaluate the efficacy of the compounds.
# normal guinea pig = experiment: Effect on blood lipid level of normal guinea pigs; format: in vivo; conditions: for HDL after administration / LDL after administration / TC after administration / TG after administration: Table 13
# [2] = Mesocricetus auratus, po, 168 h, Table 2, read-out: Reducing LDL-C %
# [3] = Mesocricetus auratus, po, 168 h, Table 2, read-out: Reducing TC %
# [4] = Mesocricetus auratus, po, 168 h, Table 4, 1 mg/kg, read-out: Reducing TC %
# [5] = Table 1, 0.4 mg/kg intragastric
# [6] = Table 1, baseline of group dosed 2 mg/kg
# [7] = golden hamster hypercholesterolemic model
# [8] = Mesocricetus auratus, po, 168 h, Table 6, 1 mg/kg, read-out: Reducing LDL-C %
# [9] = Mesocricetus auratus, po, 168 h, Table 6, 1 mg/kg, read-out: Reducing TC %
# [10] = Mesocricetus auratus, po, 168 h, Table 8, 1 mg/kg, read-out: Reducing LDL-C %
# [11] = Mesocricetus auratus, po, 168 h, Table 8, 1 mg/kg, read-out: Reducing TC %
# [12] = Table 11, baseline of group dosed 1 mg/kg
# [13] = Mesocricetus auratus, po, 168 h, Table 12, read-out: Reducing LDL-C %
# [14] = Mesocricetus auratus, po, 168 h, Table 12, read-out: Reducing TC %
# [15] = Table 11, baseline of group dosed 3 mg/kg
# [16] = Table 11, 10 mg/kg intragastric
# [17] = Table 11, baseline of group dosed 10 mg/kg
structure (smiles),measurement,setting,value
"O=C1[C@H](C/C=C(\CO)c2ccc(F)cc2)[C@@H](c2ccc(O)cc2)N1c1ccc(F)cc1 [I-1(Z), (3R,4S)-1-(4-fluorophenyl)-3-[(Z)-3-(4-fluorophenyl)-4-hydroxy-but-2-enyl]-4-(4-hydroxyphenyl)azetidin-2-one]",inhibition in vivo at 0.4 mg/kg,[1]; [2],32.7%
same,inhibition in vivo at 0.4 mg/kg,[1]; [3],33.7%
same,inhibition in vivo at 2 mg/kg,[1]; [2],72.4%
same,inhibition in vivo at 2 mg/kg,[1]; [3],49.7%
same,inhibition in vivo at 10 mg/kg,[1]; [2],83.1%
same,inhibition in vivo at 10 mg/kg,[1]; [3],55.9%
same,inhibition in vivo at 1 mg/kg,[1]; [4],57.5%
same,inhibition in vivo at 4 mg/kg,"[1]; Mesocricetus auratus, po, 168 h, Table 4, 4 mg/kg, read-out: Reducing TC %",67.9%
same,LDL-C after administration,[1]; [5],1.52 ± 0.31 mmol/L
same,TC after administration,[1]; [5],6.46 ± 0.58 mmol/L
same,LDL-C after administration,"[1]; Table 1, 2 mg/kg intragastric",0.71 ± 0.49 mmol/L
same,TC after administration,"[1]; Table 1, 2 mg/kg intragastric",4.9 ± 0.62 mmol/L
same,LDL-C after administration,"[1]; Table 1, 10 mg/kg intragastric",0.42 ± 0.2 mmol/L
same,TC after administration,"[1]; Table 1, 10 mg/kg intragastric",4.3 ± 0.85 mmol/L
same,LDL-C before administration,"[1]; Table 1, baseline of group dosed 0.4 mg/kg",2.26 ± 0.65 mmol/L
same,LDL-C before administration,[1]; [6],2.57 ± 0.47 mmol/L
same,LDL-C before administration,"[1]; Table 1, baseline of group dosed 10 mg/kg",2.48 ± 0.67 mmol/L
same,LDL after administration,"[1]; Table 3, 1 mg/kg intragastric",1.19 ± 0.16 mmol/L
same,TC after administration,"[1]; Table 3, 1 mg/kg intragastric",5.79 ± 0.99 mmol/L
same,LDL after administration,"[1]; Table 3, 4 mg/kg intragastric",0.99 ± 0.28 mmol/L
same,TC after administration,"[1]; Table 3, 4 mg/kg intragastric",4.37 ± 0.59 mmol/L
same,Reducing LDL %,"[1]; Table 4, 1 mg/kg",35.7%
same,Reducing LDL %,"[1]; Table 4, 4 mg/kg",46.2%
same,effect compared with positive control Ezetimibe at the same dose (in words),"[1]; golden hamster hypercholesterolemic model, same dose",the same as that of the positive control
same,reduction of plasma TC and LDL-C levels (in words),[1]; [7],can significantly reduce the plasma TC and LDL-C levels
same,effect of lowering cholesterol (screening result in words),[1],have the effect of lowering cholesterol
same,efficacy compared with the positive control (in words),[1],more similar to the positive control
same,HDL after administration,normal guinea pig; 0.1 mg/kg,0.47 mmol/L
same,LDL after administration,normal guinea pig; 0.1 mg/kg,1.73 mmol/L
same,TC after administration,normal guinea pig; 0.1 mg/kg,1.77 ± 0.43 mmol/L
same,TG after administration,normal guinea pig; 0.1 mg/kg,0.38 ± 0.05 mmol/L
same,HDL after administration,normal guinea pig; 0.5 mg/kg,0.4 mmol/L
same,LDL after administration,normal guinea pig; 0.5 mg/kg,1.75 mmol/L
same,TC after administration,normal guinea pig; 0.5 mg/kg,1.9 ± 0.2 mmol/L
same,TG after administration,normal guinea pig; 0.5 mg/kg,0.44 ± 0.06 mmol/L
same,HDL after administration,normal guinea pig; 2.5 mg/kg,0.47 mmol/L
same,LDL after administration,normal guinea pig; 2.5 mg/kg,0.86 mmol/L
same,TC after administration,normal guinea pig; 2.5 mg/kg,1.17 ± 0.25 mmol/L
same,TG after administration,normal guinea pig; 2.5 mg/kg,0.31 ± 0.12 mmol/L
same,reduction of plasma TC and LDL-C levels (in words),normal guinea pig; normal guinea pigs,can significantly reduce the plasma TC and LDL-C levels
same,effect compared with positive control Ezetimibe at the same dose (in words),"normal guinea pig; normal guinea pigs, same dose",the same as that of the positive control
"O=C1[C@H](CC[C@H](O)c2ccc(F)cc2)[C@@H](c2ccc(O)cc2)N1c1ccc(F)cc1 [Ezetimibe, reference compound]",inhibition in vivo at 2 mg/kg,[1]; [2],77.6%
same,inhibition in vivo at 2 mg/kg,[1]; [3],57.4%
same,inhibition in vivo at 1 mg/kg,[1]; [4],58.8%
same,inhibition in vivo at 1 mg/kg,[1]; [8],76%
same,inhibition in vivo at 1 mg/kg,[1]; [9],58.3%
same,inhibition in vivo at 1 mg/kg,[1]; [10],64.2%
same,inhibition in vivo at 1 mg/kg,[1]; [11],48.1%
same,inhibition in vivo at 1 mg/kg,"[1]; Mesocricetus auratus, po, 168 h, Table 10, 1 mg/kg, read-out: Reducing LDL-C %",68.2%
same,inhibition in vivo at 1 mg/kg,"[1]; Mesocricetus auratus, po, 168 h, Table 10, 1 mg/kg, read-out: Reducing TC %",64.4%
same,inhibition in vivo at 1 mg/kg,"[1]; Mesocricetus auratus, po, 168 h, Table 12, 1 mg/kg, read-out: Reducing LDL-C %",60.8%
same,inhibition in vivo at 1 mg/kg,"[1]; Mesocricetus auratus, po, 168 h, Table 12, 1 mg/kg, read-out: Reducing TC %",58.5%
same,LDL-C after administration,"[1]; Table 1, 2 mg/kg intragastric",0.57 ± 0.34 mmol/L
same,TC after administration,"[1]; Table 1, 2 mg/kg intragastric",4.21 ± 0.68 mmol/L
same,LDL-C before administration,[1]; [6],2.55 ± 0.96 mmol/L
same,LDL after administration,"[1]; Table 3, 1 mg/kg intragastric",1.16 ± 0.44 mmol/L
same,TC after administration,"[1]; Table 3, 1 mg/kg intragastric",5.62 ± 0.48 mmol/L
same,Reducing LDL %,"[1]; Table 4, 1 mg/kg",36.0%
same,LDL after administration,"[1]; Table 5, 1 mg/kg intragastric",1.3 mmol/L
same,TC after administration,"[1]; Table 5, 1 mg/kg intragastric",4.51 mmol/L
same,LDL after administration,"[1]; Table 7, 1 mg/kg intragastric",1.62 mmol/L
same,TC after administration,"[1]; Table 7, 1 mg/kg intragastric",5.58 mmol/L
same,LDL after administration,"[1]; Table 9, 1 mg/kg intragastric",1.0 mmol/L
same,TC after administration,"[1]; Table 9, 1 mg/kg intragastric",5.45 mmol/L
same,LDL-C after administration,"[1]; Table 11, 1 mg/kg intragastric",1.13
same,TC after administration,"[1]; Table 11, 1 mg/kg intragastric",5.29
same,LDL-C before administration,[1]; [12],2.88 ± 0.79
same,TC before administration,[1]; [12],12.74 ± 1.44
same,HDL after administration,normal guinea pig; 2.5 mg/kg,0.41 mmol/L
same,LDL after administration,normal guinea pig; 2.5 mg/kg,0.99 mmol/L
same,TC after administration,normal guinea pig; 2.5 mg/kg,1.14 ± 0.24 mmol/L
same,TG after administration,normal guinea pig; 2.5 mg/kg,0.41 ± 0.12 mmol/L
Cc1ccc(C(=O)OC/C(=C\C[C@H]2C(=O)N(c3ccc(F)cc3)[C@@H]2c2ccc(O)cc2)c2ccc(F)cc2)cc1 [I-15(Z)],inhibition in vivo at 1 mg/kg,[1]; [10],46.5%
same,inhibition in vivo at 1 mg/kg,[1]; [11],38.1%
same,inhibition in vivo at 3 mg/kg,"[1]; Mesocricetus auratus, po, 168 h, Table 8, read-out: Reducing LDL-C %",70.4%
same,inhibition in vivo at 3 mg/kg,"[1]; Mesocricetus auratus, po, 168 h, Table 8, read-out: Reducing TC %",50.8%
same,LDL after administration,"[1]; Table 7, 1 mg/kg intragastric",1.99 mmol/L
same,TC after administration,"[1]; Table 7, 1 mg/kg intragastric",6.76 mmol/L
same,LDL after administration,"[1]; Table 7, 3 mg/kg intragastric",1.44 mmol/L
same,TC after administration,"[1]; Table 7, 3 mg/kg intragastric",5.37 mmol/L
same,reduction of plasma TC and LDL-C levels (in words),[1]; [7],can significantly reduce the plasma TC and LDL-C levels
same,effect of lowering cholesterol (screening result in words),[1],have the effect of lowering cholesterol
same,efficacy compared with the positive control (in words),[1],more similar to the positive control
O=C(OC/C(=C\C[C@H]1C(=O)N(c2ccc(F)cc2)[C@@H]1c1ccc(O)cc1)c1ccc(F)cc1)c1ccccc1 [I-13(Z)],inhibition in vivo at 1 mg/kg,[1]; [8],58.1%
same,inhibition in vivo at 1 mg/kg,[1]; [9],36.8%
same,inhibition in vivo at 10 mg/kg,"[1]; Mesocricetus auratus, po, 168 h, Table 6, read-out: Reducing LDL-C %",68.8%
same,inhibition in vivo at 10 mg/kg,"[1]; Mesocricetus auratus, po, 168 h, Table 6, read-out: Reducing TC %",55.4%
same,LDL after administration,"[1]; Table 5, 1 mg/kg intragastric",1.98 mmol/L
same,TC after administration,"[1]; Table 5, 1 mg/kg intragastric",6.92 mmol/L
same,LDL after administration,"[1]; Table 5, 10 mg/kg intragastric",1.27 mmol/L
same,TC after administration,"[1]; Table 5, 10 mg/kg intragastric",4.81 mmol/L
same,reduction of plasma TC and LDL-C levels (in words),[1]; [7],can significantly reduce the plasma TC and LDL-C levels
same,effect of lowering cholesterol (screening result in words),[1],have the effect of lowering cholesterol
O=C1[C@H](C/C=C(\CO)c2ccc(F)cc2)[C@@H](c2ccc(OCc3ccccc3)cc2)N1c1ccc(F)cc1 [I-4(Z)],inhibition in vivo at 5 mg/kg,[1]; [13],53.5%
same,inhibition in vivo at 5 mg/kg,[1]; [14],49.1%
same,LDL-C after administration,"[1]; Table 11, 3 mg/kg intragastric",1.51
same,TC after administration,"[1]; Table 11, 3 mg/kg intragastric",6.48
same,LDL-C before administration,[1]; [15],3.25 ± 0.79
same,TC before administration,[1]; [15],12.73 ± 1.27
same,reduction of plasma TC and LDL-C levels (in words),[1]; [7],can significantly reduce the plasma TC and LDL-C levels
same,effect of lowering cholesterol (screening result in words),[1],have the effect of lowering cholesterol
same,efficacy compared with the positive control (in words),[1],more similar to the positive control
"COc1ccc([C@@H]2[C@@H](C/C=C(\COC(C)=O)c3ccc(F)cc3)C(=O)N2c2ccc(F)cc2)cc1 [I-17(Z), (3R,4S)-3-[(Z)-4-acetoxy-3-(4-fluorophenyl)-but-2-enyl]-1-(4-fluorophenyl)-4-(4-methoxyphenyl)azetidin-2-one]",inhibition in vivo at 10 mg/kg,[1]; [13],60.1%
same,inhibition in vivo at 10 mg/kg,[1]; [14],59.8%
same,LDL-C after administration,[1]; [16],1.19
same,TC after administration,[1]; [16],5.09
same,LDL-C before administration,[1]; [17],2.98 ± 0.72
same,TC before administration,[1]; [17],12.67 ± 1.28
same,reduction of plasma TC and LDL-C levels (in words),[1]; [7],can significantly reduce the plasma TC and LDL-C levels
same,effect of lowering cholesterol (screening result in words),[1],have the effect of lowering cholesterol
same,efficacy compared with the positive control (in words),[1],more similar to the positive control
